The values that follow come from patent publication US12410171B2, “Tropomyosin receptor kinase (TRK) degradation compounds and methods of use” (Cullgen (Shanghai), Inc., priority 2020, dated 2025).

Assay [1] relates to KM12 cells. In words: KM12 cell viability (CellTiter-Glo). The class given is cell-based. The settings on record: Homo sapiens. The essentials: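 KM12 cells seeded at 5000 per well in RPMI 1640 + 10% FBS and exposed 3 days to serial dilutions (11-point 3-fold, 8-point 3-fold from 1000 nM, or 12-point 2-fold). Viability by CellTiter-Glo; IC50 from least-squares nonlinear regression.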
In general terms: In ATP-based viability assays light output follows the ATP content of the culture.

Assay [2] addresses T1, TPM3-TRKA fusion protein (Homo sapiens, UniProt P04629).
T1 construct: The resulted chimeric proteins always retain the kinase domain of TRK proteins; TPM3 (fusion partner, N-terminal part of tropomyosin alpha-3, P06753); endogenous in cells; host or cells: KM12 colon cancer cells; the other entry of the earlier key: TPM3 (P06753, Tropomyosin alpha-3 chain)
In words: TPM3-TRKA fusion protein levels in KM12 cells (Western blot). The class given is cell-based. The settings on record: read-out: Degradation (at 10 nM). The essentials:
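KM12 colon cancer cells were treated with DMSO or compounds at 0.1–100 nM, 0.4–30 nM or other stated concentrations for 4, 8–16 or 16 h. RIPA lysates were BCA-normalized and resolved by SDS-PAGE. TPM3-TRKA was detected by chemiluminescent Western blot, with bands quantified by densitometry.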
On the technique in general: In western blotting, separated proteins are transferred to a membrane and probed.

The mark [3] stands for this setting: 72 h, KM12 cell viability, CellTiter-Glo, three days treatment, read-out: IC50.
[4] abbreviates: 16 h, TPM3-TRKA degradation in KM12 cells at 10 nM compound, category of percentage degradation.

One may read the pIC50 as the IC50 on a negative log10 scale, so that one unit is a factor of ten.

pIC50: −log10 of the molar value. Where two headings read alike, the source gives them in different places.

T1 sequence (P04629 with tags, fused parts or gaps): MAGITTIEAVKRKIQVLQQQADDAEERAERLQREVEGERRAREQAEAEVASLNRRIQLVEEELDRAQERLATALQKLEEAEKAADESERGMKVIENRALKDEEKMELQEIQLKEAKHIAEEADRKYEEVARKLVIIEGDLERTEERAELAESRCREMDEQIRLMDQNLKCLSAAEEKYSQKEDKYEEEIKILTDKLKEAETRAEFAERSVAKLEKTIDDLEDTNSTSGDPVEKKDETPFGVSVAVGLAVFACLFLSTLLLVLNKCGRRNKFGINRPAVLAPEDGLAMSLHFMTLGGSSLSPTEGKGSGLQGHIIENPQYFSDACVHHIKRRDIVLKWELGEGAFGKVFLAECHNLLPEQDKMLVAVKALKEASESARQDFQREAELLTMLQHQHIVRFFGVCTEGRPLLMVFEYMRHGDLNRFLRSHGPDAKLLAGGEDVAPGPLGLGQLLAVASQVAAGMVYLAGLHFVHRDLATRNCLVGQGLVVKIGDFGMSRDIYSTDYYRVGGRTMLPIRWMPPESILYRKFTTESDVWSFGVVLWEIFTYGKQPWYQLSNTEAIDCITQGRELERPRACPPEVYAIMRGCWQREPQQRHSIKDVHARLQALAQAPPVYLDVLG

Take `Cn1c(=O)n(C2CCC(=O)NC2=O)c2ccc(OCCN3CCN(c4cccc(-c5cnc6ccc(N7CCC[C@@H]7c7cccc(F)c7)nn56)n4)CC3)cc21` (stereo partly drawn) [TR-246, 3-(5-(2-(4-(6-(6-((R)-2-(3-Fluorophenyl)pyrrolidin-1-yl)imidazo[1,2-b]pyridazin-3-yl)pyridin-2-yl)piperazin-1-yl)ethoxy)-3-methyl-2-oxo-2,3-dihydro-1H-benzo[d]imidazol-1-yl)piperidine-2,6-dione]: in assay [1] (setting [3]), the pIC50 is 7.00. Moreover, the percent degradation of TPM3-TRKA protein at 0.01 µM in assay [2] (setting [4]) was greater than 80%.
In the case of `O=C1CCC(n2c(=O)oc3c(NCCN4CCN(c5cccc(-c6cnc7ccc(N8CCC[C@@H]8c8cccc(F)c8)nn67)n5)CC4)cccc32)C(=O)N1` (stereo partly drawn) [TR-247, 3-(7-((2-(4-(6-(6-((R)-2-(3-Fluorophenyl)pyrrolidin-1-yl)imidazo[1,2-b]pyridazin-3-yl)pyridin-2-yl)piperazin-1-yl)ethyl)amino)-2-oxobenzo[d]oxazol-3 (2H)-yl)piperidine-2,6-dione], in assay [1] (setting [3]), the pIC50 is 8.09. Besides, the percent degradation of TPM3-TRKA protein at 0.01 µM in assay [2] (setting [4]) is greater than 80%.
In the same order, the values of `O=C1CCC(N2C(=O)c3ccc(CN4CC(CN5CCN(c6cccc(-c7cnc8ccc(N9CCC[C@@H]9c9cccc(F)c9)nn78)n6)CC5)C4)cc3C2=O)C(=O)N1` (stereo partly drawn) [TR-248, 2-(2,6-Dioxopiperidin-3-yl)-5-((3-((4-(6-(6-((R)-2-(3-fluorophenyl)pyrrolidin-1-yl)imidazo[1,2-b]pyridazin-3-yl)pyridin-2-yl)piperazin-1-yl)methyl)azetidin-1-yl)methyl)isoindoline-1,3-dione] are 7.56 and greater than 80%.
For the molecule `O=C1CCC(N2C(=O)c3ccc(CN4CC(CN5CCN(c6ccc(C(=O)Nc7n[nH]c8ccc(Cc9cc(F)cc(F)c9)cc78)c(NC7CCOCC7)c6)CC5)C4)cc3C2=O)C(=O)N1` (stereo not drawn) [TR-249, N-(5-(3,5-difluorobenzyl)-1H-indazol-3-yl)-4-(4-((1-((2-(2,6-dioxopiperidin-3-yl)-1,3-dioxoisoindolin-5-yl)methyl)azetidin-3-yl)methyl)piperazin-1-yl)-2-((tetrahydro-2H-pyran-4-yl)amino)benzamide], the pIC50 in assay [1] (setting [3]) is 7.82. Also, the percent degradation of TPM3-TRKA protein at 0.01 µM in assay [2] (setting [4]) is greater than 80%.
In the same order, the values of `Cn1c(=O)n(C2CCC(=O)NC2=O)c2ccc(N3CC(CN4CCN(c5cccc(-c6cnc7ccc(N8CCC[C@@H]8c8cccc(F)c8)nn67)n5)CC4)C3)cc21` (stereo partly drawn) [TR-250, 3-(5-(3-((4-(6-(6-((R)-2-(3-fluorophenyl)pyrrolidin-1-yl)imidazo[1,2-b]pyridazin-3-yl)pyridin-2-yl)piperazin-1-yl)methyl)azetidin-1-yl)-3-methyl-2-oxo-2,3-dihydro-1H-benzo[d]imidazol-1-yl)piperidine-2,6-dione] are 7.79 and greater than 80%.
For `O=C1CCC(N2C(=O)c3ccc(CN4CC(CN5CCN(c6ccc(C(=O)Nc7n[nH]c8ccc(Cc9cc(F)cc(F)c9)cc78)c(NCCF)c6)CC5)C4)cc3C2=O)C(=O)N1` (stereo not drawn) [TR-251], in that order: 7.33 and greater than 80%.
For the molecule `O=C1CCC(N2C(=O)c3ccc(CN4CC(N5CCN(c6ccc(C(=O)Nc7n[nH]c8ccc(Cc9cc(F)cc(F)c9)cc78)c(NCCF)c6)CC5)C4)cc3C2=O)C(=O)N1` (stereo not drawn) [TR-252, N—(S-(3,5-Difluorobenzyl)-1H-indazol-3-yl)-4-(4-(1-((2-(2,6-dioxopiperidin-3-yl)-1,3-dioxoisoindolin-5-yl)methyl)azetidin-3-yl)piperazin-1-yl)-2-((2-fluoroethyl)amino)benzamide], in assay [1] (KM12, 72 h), the pIC50 is 7.32. In addition, in assay [2] (KM12, 16 h), the percent degradation of TPM3-TRKA protein at 0.01 µM is greater than 80%.
Take `O=C1CCC(N2Cc3cc(C#CCN4CCN(c5ccc(C(=O)Nc6n[nH]c7ccc(Cc8cc(F)cc(F)c8)cc67)c(NC6CCOCC6)c5)CC4)ccc3C2=O)C(=O)N1` (stereo not drawn) [TR-253, N-(5-(3,5-Difluorobenzyl)-1H-indazol-3-yl)-4-(4-(3-(2-(2,6-dioxopiperidin-3-yl)-1-oxoisoindolin-5-yl)prop-2-yn-1-yl)piperazin-1-yl)-2-((tetrahydro-2H-pyran-4-yl)amino)benzamide]: the pIC50 in assay [1] (setting [3]) was 8.16. Besides, the percent degradation of TPM3-TRKA protein at 0.01 µM in assay [2] (setting [4]) is greater than 80%.
`O=C1CCC(N2C(=O)c3ccc(CN4CC(N5CCN(c6ccc(C(=O)Nc7n[nH]c8ccc(Cc9cc(F)cc(F)c9)cc78)c(NC7CCOCC7)c6)CC5)C4)cc3C2=O)C(=O)N1` (stereo not drawn) [TR-254, N-(5-(3,5-difluorobenzyl)-1H-indazol-3-yl)-4-(4-(1-((2-(2,6-dioxopiperidin-3-yl)-1,3-dioxoisoindolin-5-yl)methyl)azetidin-3-yl)piperazin-1-yl)-2-((tetrahydro-2H-pyran-4-yl)amino)benzamide]: in assay [1] (KM12, 72 h), the negative logarithm of the IC50 (pIC50) was 7.69. Further, the percent degradation of TPM3-TRKA protein at 0.01 µM in assay [2] (KM12, 16 h) is greater than 80%.
As for `O=C1CCC(N2Cc3cc(C#CCN4CCN(c5ccc(C(=O)Nc6n[nH]c7ccc(Cc8cc(F)cc(F)c8)cc67)c(NCCF)c5)CC4)ccc3C2=O)C(=O)N1` (stereo not drawn) [TR-255, N—(S-(3,5-Difluorobenzyl)-1H-indazol-3-yl)-4-(4-(3-(2-(2,6-dioxopiperidin-3-yl)-1-oxoisoindolin-5-yl)prop-2-yn-1-yl)piperazin-1-yl)-2-((2-fluoroethyl)amino)benzamide], in assay [1] (setting [3]), the pIC50 was 7.84. Also, the percent degradation of TPM3-TRKA protein at 0.01 µM in assay [2] (setting [4]) is greater than 80%.
Turning to `O=C1CCC(N2Cc3cc(C#CCN4CCN(c5ccc(C(=O)Nc6n[nH]c7ccc(Cc8cc(F)cc(F)c8)cc67)cc5)CC4)ccc3C2=O)C(=O)N1` (stereo not drawn) [TR-256, N—(S-(3,5-Difluorobenzyl)-1H-indazol-3-yl)-4-(4-(3-(2-(2,6-dioxopiperidin-3-yl)-1-oxoisoindolin-5-yl)prop-2-yn-1-yl)piperazin-1˜yl)benzamide], the pIC50 in assay [1] (setting [3]) was 7.33. Further, the percent degradation of TPM3-TRKA protein at 0.01 µM in assay [2] (setting [4]) fell in the range of 50 to 80%.
In the same order, the values of `Cn1c(=O)n(C2CCC(=O)NC2=O)c2cccc(N3CC(CN4CCN(c5cccc(-c6cnc7ccc(N8CCC[C@@H]8c8cccc(F)c8)nn67)n5)CC4)C3)c21` (stereo partly drawn) [TR-258, 3-(4-(3-((4-(6-(6-((R)-2-(3-fluorophenyl)pyrrolidin-1-yl)imidazo[1,2-b]pyridazin-3-yl)pyridin-2-yl)piperazin-1-yl)methyl)azetidin-1-yl)-3-methyl-2-oxo-2,3-dihydro-1H-benzo[d]imidazol-1-yl)piperidine-2,6-dione] are 7.98 and greater than 80%.
For `Cn1c(=O)n(C2CCC(=O)NC2=O)c2ccc(CCCCN3CCN(c4cccc(-c5cnc6ccc(N7CCC[C@@H]7c7cccc(F)c7)nn56)n4)CC3)cc21` (stereo partly drawn) [TR-259, 3-(5-(4-(4-(6-(6-((R)-2-(3-fluorophenyl)pyrrolidin-1-yl)imidazo[1,2-b]pyridazin-3-yl)pyridin-2-yl)piperazin-1-yl)butyl)-3-methyl-2-oxo-2,3-dihydro-1H-benzo[d]imidazol-1-yl)piperidine-2,6-dione], in that order: 8.28 and greater than 80%.
For `Cn1c(=O)n(C2CCC(=O)NC2=O)c2ccc(C#CCCN3CCN(c4cccc(-c5cnc6ccc(N7CCC[C@@H]7c7cccc(F)c7)nn56)n4)CC3)cc21` (stereo partly drawn) [TR-260, 3-(5-(4-(4-(6-(6-((R)-2-(3-fluorophenyl)pyrrolidin-1-yl)imidazo[1,2-b]pyridazin-3-yl)pyridin-2-yl)piperazin-1-yl)but-1-yn-1-yl)-3-methyl-2-oxo-2,3-dihydro-1H-benzo[d]imidazol-1-yl)piperidine-2,6-dione], in that order: 7.58 and greater than 80%.
For `O=C1CCC(N2C(=O)c3ccc(CN4CC(N5CCN(c6ccc(C(=O)Nc7n[nH]c8ccc(Cc9cc(F)cc(F)c9)cc78)cc6)CC5)C4)cc3C2=O)C(=O)N1` (stereo not drawn) [TR-261, N-(5-(3,5-Difluorobenzyl)-1H-indazol-3-yl)-4-(4-(1-((2-(2,6-dioxopiperidin-3-yl)-1,3-dioxoisoindolin-S-yl)methyl)azetidin-3-yl)piperazin-1-yl)benzamide], the pIC50 in assay [1] (KM12, 72 h) was 6.44. Also, the percent degradation of TPM3-TRKA protein at 0.01 µM in assay [2] (KM12, 16 h) was 50 to 80%.
For `O=C1CCC(N2C(=O)c3ccc(CN4CC(CN5CCN(c6ccc(C(=O)Nc7n[nH]c8ccc(Cc9cc(F)cc(F)c9)cc78)cc6)CC5)C4)cc3C2=O)C(=O)N1` (stereo not drawn) [TR-262, N-(5-(3,5-Difluorobenzyl)-1H-indazol-3-yl)-4-(4-((1-((2-(2,6-dioxopiperidin-3-yl)-1,3-dioxoisoindolin-5-yl)methyl)azetidin-3-yl)methyl)piperazin-1-yl)benzamide], the pIC50 in assay [1] (setting [3]) was 7.09. Further, in assay [2] (setting [4]), the percent degradation of TPM3-TRKA protein at 0.01 µM is greater than 80%.
In the same order, the values of `O=C1CCC(N2C(=O)c3ccc(NCCN4CCN(c5ccc(C(=O)Nc6n[nH]c7ccc(Cc8cc(F)cc(F)c8)cc67)cc5)CC4)cc3C2=O)C(=O)N1` (stereo not drawn) [TR-263, N-(5-(3,5-difluorobenzyl)-1H-indazol-3-yl)-4-(4-(2-((2-(2,6-dioxopiperidin-3-yl)-1,3-dioxoisoindolin-5-yl)amino)ethyl)piperazin-1-yl)benzamide] are 7.72 and 50 to 80%.
In the same order, the values of `O=C1CCC(N2C(=O)c3ccc(NCC(=O)N4CCN(c5ccc(C(=O)Nc6n[nH]c7ccc(Cc8cc(F)cc(F)c8)cc67)cc5)CC4)cc3C2=O)C(=O)N1` (stereo not drawn) [TR-264, N-(5-(3,5-difluorobenzyl)-1H-indazol-3-yl)-4-(4-((2˜ (2,6-dioxopiperidin-3-yl)-1,3-dioxoisoindolin-5-yl)glycyl)piperazin-1-yl)benzamide] are 8.00 and greater than 80%.
